# Target: Alkaline phosphatase, placental type (Homo sapiens, UniProt P05187)
# Assay: PLAP enzyme inhibitors, dose response, selectivity assay for human IAP inhibitor project, biochemical, uHTS hits, luminescence (AID 488892)
# Sequence of Alkaline phosphatase, placental type (P05187 whole entry, looked up): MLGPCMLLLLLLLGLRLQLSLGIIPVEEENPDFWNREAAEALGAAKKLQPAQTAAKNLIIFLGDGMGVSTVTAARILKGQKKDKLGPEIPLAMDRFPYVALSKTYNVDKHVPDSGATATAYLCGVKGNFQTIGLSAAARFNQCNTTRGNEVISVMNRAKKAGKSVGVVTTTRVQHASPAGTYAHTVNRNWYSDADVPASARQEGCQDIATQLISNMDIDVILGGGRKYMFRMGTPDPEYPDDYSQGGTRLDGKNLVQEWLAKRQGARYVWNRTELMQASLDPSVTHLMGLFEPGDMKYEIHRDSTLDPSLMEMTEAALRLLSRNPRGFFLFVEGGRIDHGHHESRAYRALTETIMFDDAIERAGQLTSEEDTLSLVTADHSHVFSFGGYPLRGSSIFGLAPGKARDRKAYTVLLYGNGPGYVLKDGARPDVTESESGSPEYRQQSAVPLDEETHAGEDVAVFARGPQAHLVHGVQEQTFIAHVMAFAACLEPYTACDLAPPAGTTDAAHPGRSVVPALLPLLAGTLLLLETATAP
row,IC50 [µM],SMILES
1,> 100,CC(N=Nc1ccccc1[N+](=O)[O-])c1ccc([N+](=O)[O-])cc1 (stereo not drawn)
2,35.1,"CCOC1=CC(=Cc2c(C)[nH]oc2=O)C=C(Br)C1=O [4-[(Z)-(3-bromo-5-ethoxy-4-oxo-1-cyclohexa-2,5-dienylidene)methyl]-3-methyl-2H-isoxazol-5-one]"
3,37.8,C=c1[nH]n(Cc2ccccc2)c(=O)c1=Cc1ccc(N(C)C)cc1 [(4Z)-4-[[4-(dimethylamino)phenyl]methylidene]-5-methyl-2-(phenylmethyl)-3-pyrazolone]

# Source: BindingDB's records for doi:10.7270/Q2W957N3 (Burnham Center For Chemical Genomics, 2010)
